Measurements: patent US9822147B2, “Methods of treating ophthalmic diseases using NPR-B agonists” (priority 2009, dated 2017)
Numbered stars: 1 amine (or outer) side, 2 acyl side, 3 side chain; on linkers, the order of the positions; unused ones are H or OH. Square brackets hold non-standard residues; d marks the D form. Ends that are not written are not given here. Peptide text beside a SMILES is read from it. * marks the point of attachment. Sni = (S)-nipecotic acid, O=C([C@H]1CCCN([*:1])C1)[*:2]; Pro(4R-NH2) = N[C@H]1CN[C@H](C(=O)O)C1; X1 = CCCCCCCCN1CCC[C@H](C(=O)*)C1; dDap(Me2) = CN(C)C[C@@H](N)C(=O)O; Hyp = O=C(O)[C@@H]1C[C@@H](O)CN1; NMeL = CN[C@@H](CC(C)C)C(=O)O; Occ = octanoic acid

Target: T1, NPR-B (Homo sapiens, UniProt P20594)
T1 construct: a functional assay using endogenously NPR-B expressing GTM-3 cells; endogenous in cells; host or cells: GTM-3 (human glaucoma trabecular meshwork cells)
T1 sequence (P20594 23-1047): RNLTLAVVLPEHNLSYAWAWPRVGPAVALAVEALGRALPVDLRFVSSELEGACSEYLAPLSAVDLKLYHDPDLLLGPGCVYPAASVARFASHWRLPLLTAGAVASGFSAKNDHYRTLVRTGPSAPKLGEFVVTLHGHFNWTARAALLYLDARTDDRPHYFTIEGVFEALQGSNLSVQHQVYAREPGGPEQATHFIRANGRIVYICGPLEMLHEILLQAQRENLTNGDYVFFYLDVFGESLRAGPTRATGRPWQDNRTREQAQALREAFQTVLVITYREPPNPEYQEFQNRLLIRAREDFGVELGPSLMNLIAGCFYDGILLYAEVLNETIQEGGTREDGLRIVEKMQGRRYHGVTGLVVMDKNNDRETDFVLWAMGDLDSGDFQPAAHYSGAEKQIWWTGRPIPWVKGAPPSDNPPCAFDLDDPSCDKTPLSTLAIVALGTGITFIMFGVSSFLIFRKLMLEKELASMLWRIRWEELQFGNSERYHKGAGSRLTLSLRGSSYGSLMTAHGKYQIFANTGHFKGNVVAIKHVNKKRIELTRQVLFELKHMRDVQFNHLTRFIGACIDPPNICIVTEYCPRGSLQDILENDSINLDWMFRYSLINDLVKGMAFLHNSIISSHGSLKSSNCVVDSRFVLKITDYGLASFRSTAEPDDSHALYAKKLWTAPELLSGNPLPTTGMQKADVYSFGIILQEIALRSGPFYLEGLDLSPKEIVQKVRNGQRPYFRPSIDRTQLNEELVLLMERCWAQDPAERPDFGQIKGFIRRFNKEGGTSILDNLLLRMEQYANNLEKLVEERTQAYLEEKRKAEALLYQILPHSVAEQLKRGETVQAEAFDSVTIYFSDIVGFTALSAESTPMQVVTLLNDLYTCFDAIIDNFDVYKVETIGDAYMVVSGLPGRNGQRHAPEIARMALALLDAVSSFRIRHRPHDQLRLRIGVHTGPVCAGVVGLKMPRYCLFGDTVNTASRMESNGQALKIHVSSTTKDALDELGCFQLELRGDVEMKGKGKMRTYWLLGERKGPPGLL
Assay: NPR-B induced production of cyclic GMP in human glaucoma trabecular meshwork cells (GTM-3)
Assay type: cell-based
Details: group by EC50 and Emax (CNP = 100%); Table 4; read-out: Activity (group), NPR-B activation assayed with GTM-3 cells

| Compound | EC50 |
| --- | --- |
| CCCCCCCC(=O)N[C@H](C)C(=O)N[C@@H](Cc1ccc(Cl)cc1)C(=O)N[C@H](CC(C)C)C(=O)N[C@@H](CC(C)C)C(=O)N1C[C@H](O)C[C@H]1C(=O)N(C)[C@@H](CC(C)C)C(=O)N[C@@H](CC(=O)O)C(=O)N[C@@H](CCCNC(=N)N)C(=O)N[C@H](C(N)=O)[C@@H](C)CC [JAL-1043, Occ-ala-Pcf-leu-Leu-Hyp-Nml-Asp-Arg-Ile-NH2] (HELM PEPTIDE1{[CCCCCCCC(=O)[*:2]].[dA].[O=C([C@H](Cc1ccc(Cl)cc1)N[*:1])[*:2]].[dL].L.[Hyp].[meL].D.R.I.[am]}$$$$V2.0) | < 1 µM |
| CCCCCCCC(=O)N[C@H](C)C(=O)N[C@@H](Cc1ccccc1)C(=O)N[C@H](CC(C)C)C(=O)N[C@@H](CC(C)C)C(=O)N1C[C@H](O)C[C@H]1C(=O)N(C)C(CC(C)(C)C)C(=O)N[C@@H](CC(=O)O)C(=O)N[C@@H](CCCNC(=N)N)C(=O)N[C@H](C(N)=O)[C@@H](C)CC (stereo partly drawn) [JAL-1283, Occ-ala-Phe-leu-Leu-Hyp-(SH-158)-Asp-Arg-Ile-NH2] (HELM PEPTIDE1{[CCCCCCCC(=O)[*:2]].[dA].F.[dL].L.[Hyp].[CN(C(CC(C)(C)C)C(=O)[*:2])[*:1]].D.R.I.[am]}$$$$V2.0) | < 1 µM |
| CCCCCCCC(=O)N[C@H](C)C(=O)N[C@@H](Cc1ccccc1)C(=O)N[C@H](CCCN(C)C)C(=O)N[C@@H](CC(C)C)C(=O)N1C[C@H](O)C[C@H]1C(=O)N(C)[C@@H](CC(C)C)C(=O)N[C@@H](CC(=O)O)C(=O)N[C@@H](CCCNC(=N)N)C(=O)N[C@H](C(N)=O)[C@@H](C)CC [JAL-1288, Occ-ala-Phe-orn(Me2)-Leu-Hyp-Nml-Asp-Arg-Ile-NH2] (HELM PEPTIDE1{[CCCCCCCC(=O)[*:2]].[dA].F.[CN(C)CCC[C@@H](N[*:1])C(=O)[*:2]].L.[Hyp].[meL].D.R.I.[am]}$$$$V2.0) | < 1 µM |
| CCCCCCCC(=O)N1CCCC[C@@H]1C(=O)N[C@@H](Cc1ccccc1)C(=O)N[C@H](CCCNC(=N)N)C(=O)N[C@@H](CC(C)C)C(=O)N1CCC[C@H]1C(=O)N(C)[C@@H](CC(C)C)C(=O)N[C@@H](CC(=O)O)C(=O)N[C@@H](CCCNC(=N)N)C(=O)N[C@H](C(N)=O)[C@@H](C)CC [JAL-1078, Occ-pip-Phe-arg-Leu-Pro-Nml-Asp-Arg-Ile-NH2] (HELM PEPTIDE1{[CCCCCCCC(=O)[*:2]].[O=C([C@H]1CCCCN1[*:1])[*:2]].F.[dR].L.P.[meL].D.R.I.[am]}$$$$V2.0) | < 1 µM |

System: rabbit eyes
Assay: Efficacy in the rabbit: intraocular pressure (IOP) after a single topical ocular drop
Assay type: in vivo
Details: dose 300 ug topical ocular, single 30 μL drop, up to 4 hr post dose, 1% as suspension (+) or solution (++) per mark on label
Protocol: A single 30 μL drop of a test item formulation was administered to rabbit eyes (n=8 to 10).
Intraocular pressure (IOP) was assessed in each eye at 0 hr, just prior to dosing, and again hourly for up to 4 hr post dose. The efficacy of a given formulation was determined based on the difference between the pretreatment TOP readings at 0 hr and the post treatment readings. A maximum percent reduction in IOP greater than 15% was noted by the “+” symbol. A maximum IOP reduction of less than 15% was assigned the “−” symbol.

| Compound | RIOP, maximum percent reduction in IOP |
| --- | --- |
| CCCCCCCCN1CCC[C@H](C(=O)N[C@@H](Cc2ccccc2)C(=O)N[C@H](CN(C)C)C(=O)N[C@@H](CC(C)C)C(=O)N2C[C@H](N)C[C@H]2C(=O)N(C)[C@@H](CC(C)C)C(=O)N[C@@H](CC(=O)O)C(=O)N[C@@H](CCCNC(=N)N)C(=O)N[C@H](C(N)=O)[C@@H](C)CC)C1 [JAL-1369, Oct-Sni-Phe-dap(Me2)-Leu-Tap-Nml-Asp-Arg-Ile-NH2] (X1-F[dDap(Me2)]L[Pro(4R-NH2)][NMeL]DRI-NH2) | + (+ IOP reduction >15%) |
| CCCCCCCCN1CCC[C@H](C(=O)N[C@@H](Cc2ccccc2)C(=O)N[C@H](CN(C)C)C(=O)N[C@@H](CC(C)C)C(=O)N2C[C@H](O)C[C@H]2C(=O)N(C)[C@@H](CC(C)C)C(=O)N[C@@H](CC(=O)O)C(=O)N[C@@H](CCCNC(=N)N)C(=O)N[C@H](C(N)=O)[C@@H](C)CC)C1 [JAL-1429, Oct-Sni-Phe-dap(Me2)-Leu-Hyp-Nml-Asp-Arg-Ile-NH2] (HELM PEPTIDE1{[CCCCCCCCN1CCC[C@H](C(=O)[*:2])C1].F.[CN(C)C[C@@H](N[*:1])C(=O)[*:2]].L.[Hyp].[meL].D.R.I.[am]}$$$$V2.0) | + (+ IOP reduction >15%) |
| Occ-Sni-Phe-dap(Me2)-Leu-Hyp-Nml-Val-Arg-Ile-NH2 ([Occ][Sni]FXL[Hyp][NMeL]VRI-NH2; not fully specified (residue 4); printed as Occ-Sni-Phe-dap(Me2)-Leu-Hyp-Nml-Val-Arg-Ile-NH2) [JAL-1400] | + (+ IOP reduction >15%) |
